Data taken from patent US6767991B1, “Hepatitis C inhibitor peptides” (priority 1997, dated 2004).
pIC50: −log10 of the molar value. Where two headings read alike, the source gives them in different places. *1 amine or outer side, *2 acyl side, *3 side chain or, on linkers, in order; H or OH if unused. Where a SMILES comes first, the peptide text is derived from it. Where no end group is shown, it is not given here. [ ]: non-standard residue; d: D form. The star is where a group is joined. Acca(2-Et,1R,2R) = CC[C@@H]1C[C@]1(N)C(=O)O; CH2(1-naphthyl) = c1ccc2c(C*)cccc2c1; mXylylene = c1cc(C[*:1])cc(C[*:2])c1; Hyp = O=C(O)[C@@H]1C[C@@H](O)CN1; Chg = N[C@H](C(=O)O)C1CCCCC1; Pip = O=C(O)[C@@H]1CCCCN1; Nva = CCC[C@H](N)C(=O)O

Columns and labels:
human leukocyte elastase = biological target: T1, human leukocyte elastase (Homo sapiens, UniProt P08246); test: Specificity assay: human leukocyte elastase; format: biochemical
T1 sequence (P08246 30-267): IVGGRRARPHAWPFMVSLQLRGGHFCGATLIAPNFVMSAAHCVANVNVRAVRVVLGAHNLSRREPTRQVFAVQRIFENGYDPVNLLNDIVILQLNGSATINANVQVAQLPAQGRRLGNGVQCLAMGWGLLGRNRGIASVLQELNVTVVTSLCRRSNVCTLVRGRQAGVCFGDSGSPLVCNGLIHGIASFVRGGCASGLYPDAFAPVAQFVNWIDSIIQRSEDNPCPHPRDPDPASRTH
Protocol: The final conditions for each assay were as follows:
[100 μM Succ-AAPF-pNA [SEQ. ID NO.
The percentage of inhibition was calculated using the formula:
[1-((UVinn-UVblank)/(UVctl-UVblank))]×100

[1] = biological target: T2, HCV NS3 protease type 1b/NS4A cofactor peptide (Hepatitis C virus genotype 1b, UniProt P26663); test: Recombinant HCV NS3 protease/NS4A cofactor peptide radiometric assay; format: biochemical, HCV genotype 1b; settings: for pIC50: read-out: IC50
T2 construct: recombinant HCV NS3 protease (amino acid 1027 to 1206) was cloned in the pET11d bacterial expression vector; made in house; host or cells: E. coli BL21(DE3)pLysS
T2 sequence (P26663 1027-1206, other chains not shown): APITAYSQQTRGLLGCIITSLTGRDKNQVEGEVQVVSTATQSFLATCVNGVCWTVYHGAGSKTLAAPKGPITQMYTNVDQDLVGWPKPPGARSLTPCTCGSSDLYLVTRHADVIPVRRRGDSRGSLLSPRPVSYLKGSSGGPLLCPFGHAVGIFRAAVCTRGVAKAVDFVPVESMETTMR
Protocol: Recombinant HCV NS3 Protease/NS4A Cofactor Peptide Radiometric Assay.
The enzyme was stored at −80° C., thawed on ice and diluted just prior to use in the assay buffer containing the NS4A cofactor peptide.
The substrate used for the NS3 protease/NS4A cofactor peptide radiometric assay, DDIVPC-SMSYTW [SEQ. ID NO. 2], is cleaved between the cysteine and the serine residues by the enzyme. The sequence DDIVPC-SMSYTW [SEQ. ID NO. 2] corresponds to the NS5A/NS5B natural cleavage site in which the cysteine residue in P2 has been substituted for a proline. The peptide substrate DDIVPC-SMSYTW [SEQ. ID NO. […] ID NO. […] [SEQ. ID NO. 5] (molar ratio enzyme: cofactor 1:100) in the absence or presence of inhibitors. The separation of substrate from products is performed by adding avidin-coated agarose beads to the assay mixture followed by filtration. […] ID NO. 4] product found in the filtrate allows for the calculation of the percentage of substrate conversion and of the percentage of inhibition.
Tris and Tris-HCl (UltraPure) were obtained from Gibco-BRL. Glycerol (UltraPure), MES and BSA were purchased from Sigma. TCEP was obtained from Pierce, DMSO from Aldrich and NaOH from Anachemia.
Assay buffer: 50 mM Tris HCl, pH 7.5, 30% (w/v) glycerol, 1 mg/mL BSA, 1 mM TCEP (TCEP added just prior to use from a 1 M stock solution in water).
Substrate: […] [SEQ. ID NO.
ID NO. 3] (˜1 nM final concentration).
The assay was performed in a 96-well polypropylene plate from Costar. Each well contained:
20 μL substrate/tracer in assay buffer;
10 μL±inhibitor in 20% DMSO/assay buffer;
10 μL NS3 protease 1b/NS4 cofactor peptide (molar ratio 1:100).
Blank (no inhibitor and no enzyme) and control (no inhibitor) were also prepared on the same assay plate.
The enzymatic reaction was initiated by the addition of the enzyme/NS4A peptide solution and the assay mixture was incubated for 40 min at 23° C. under gentle agitation. Ten (10) μL of 0.5N NaOH were added and 10 μL 1 M MES, pH 5.8 were added to quench the enzymatic reaction.
Twenty (20) μL of avidin-coated agarose beads (purchased from Pierce) were added in a Millipore MADP N65 filtration plate. The quenched assay mixture was transferred to the filtration plate, and incubated for 60 min at 23° C. under gentle agitation.
The plates were filtered using a Millipore MultiScreen Vacuum Manifold Filtration apparatus, and 40 μL of the filtrate was transferred in an opaque 96-well plate containing 60 μL of scintillation fluid per well.
The % inhibition was calculated with the following equation:
100-[(countsinh-countsblank)/(countsctl-countsblank)×100]

[2] = biological target: T3, recombinant HCV NS3 protease type 1b (Hepatitis C virus genotype 1b, UniProt P26663); test: Recombinant HCV NS3 protease radiometric assay; format: biochemical, HCV genotype 1b
T3 construct: recombinant HCV NS3 protease (amino acid 1027 to 1206) was cloned in the pET11d bacterial expression vector; made in house; host or cells: E. coli BL21(DE3)pLysS
T3 sequence (P26663 1027-1206): as the sequence (P26663 1027-1206, other chains not shown) above
From the text: Cloning, Expression and Purification of the Recombinant HCV NS3 Protease type 1b.
Serum from an HCV-infected patient was obtained through an external collaboration (Bernard Willems MD, Hôpital St-Luc. Montréal. Canada and Dr. Donald Murphy, Laboratoire de Santé Publique du Québec, Ste-Anne de Bellevue, Canada). An engineered full-length cDNA template of the HCV genome was constructed from DNA fragments obtained by reverse transcription-PCR (RT-PCR) of serum RNA and using specific primers selected on the basis of homology between other genotype 1b strains. From the determination of the entire genomic sequence, a genotype 1b was assigned to the HCV isolate according to the classification of Simmonds et al. (J. Clin. Microbiol., (1993), 31, p.1493-1503). […] A DNA fragment encoding the polyprotein precursor (NS3/NS4A/NS4B/NS5A/NS5B) was generated by PCR and introduced into eukaryotic expression vectors. […] The mature NS3 protein was not observed with expression of a polyprotein precursor containing the mutation S1165A, which inactivates the NS3 protease, confirming the functionality of the HCV NS3 protease.
The DNA fragment encoding the recombinant HCV NS3 protease (amino acid 1027 to 1206) was cloned in the pET11d bacterial expression vector. The NS3 protease expression in E. coli BL21(DE3)pLysS was induced by incubation with 1 mM IPTG for 3 h at 22° C. A typical fermentation (18 L) yielded approximately 100 g of wet cell paste. The cells were resuspended in lysis buffer (3.0 mL/g) consisting of 25 mM sodium phosphate, pH 7.5, 10% glycerol (v/v), 1 mM EDTA, 0.01% NP-40 and stored at −80° C. Cells were thawed and homogenized following the addition of 5 mM DTT. Magnesium chloride and DNase were then added to the homogenate at final concentrations of 20 mM and 20 μg/mL respectively. After a 25 min incubation at 4° C., the homogenate was sonicated and centrifuged at 15000×g for 30 min at 4° C. The pH of the supernatant was then adjusted to 6.5 using a 1 M sodium phosphate solution.
An additional gel filtration chromatography step was added to the 2 step purification procedure described in WO 95/22985 (incorporated herein by reference). Briefly, the supernatant from the bacterial extract was loaded on a SP HiTrap column (Pharmacia) previously equilibrated at a flow rate of 2 mL/min in buffer A (50 mM sodium phosphate. pH 6.5, […], 1 mM EDTA, 5 mM DTT, 0.01% NP-40). The column was then washed with buffer A containing 0.15 M NaCl and the protease eluted by applying 10 column volumes of a linear 0.15 to 0.3 M NaCl gradient. NS3 protease-containing fractions were pooled and diluted to a final NaCl concentration of 0.1 M. The enzyme was further purified on a HiTrap Heparin column (Pharmacia) equilibrated in buffer B (25 mM sodium phosphate, pH 7.5, 10% glycerol, 5 mM DTT, 0.01% NP-40). The sample was loaded at a flow rate of 3 mL/min. The column was then washed with buffer B containing 0.15 M NaCl at a flow rate of 1.5 mL/min. Two step washes were performed in the presence of buffer B containing 0.3 or 1 M NaCl. The protease was recovered in the 0.3M NaCl wash, diluted 3-fold with buffer B, reapplied on the HiTrap Heparin column and eluted with buffer B containing 0.4 M NaCl. Finally, the NS3 protease-containing fractions were applied on a Superdex 75 HiLoad 16/60 column (Pharmacia) equilibrated in buffer B containing 0.3 M NaCl. The purity of the HCV NS3 protease obtained from the pooled tractions was judged to be greater than 95% by SDS-PAGE followed by densitometry analysis.
The enzyme was stored at −80° C. and was thawed on ice and diluted just prior to use.
Recombinant HCV NS3 Protease Radiometric Assay
The substrate used for the HCV NS3 protease radiometric assay, DDIVPC-SMSYTW [SEQ. ID NO. 2], is cleaved between the cysteine and the serine residues by the enzyme. The sequence DDIVPC-SMSYTW [SEQ. ID NO. 2] corresponds to the NS5A/NS5B natural cleavage site in which the cysteine residue in P2 has been substituted for a proline. […]

Row | Molecule | pIC50 [2] | other results
1 | CC[C@@H]1C[C@]1(NC(=O)[C@@H]1C[C@@H](OCc2cccc3ccccc23)CN1C(=O)[C@@H](NC(=O)[C@@H](NC(C)=O)C1CCCCC1)C(C)C)C(=O)O [compound 513] |  | pIC50 (human leukocyte elastase): < 3.52; fold more potent than the corresponding 1S,2S isomer ([1]; 1R,2R isomer (513) versus 1S,2S isomer (514)): 25 fold; IC50 ([1]; IC50 (μM), Table 5, first line of the cell, NS3 protease/NS4A cofactor peptide radiometric assay (Example 38)): 1.66 µM; pIC50 ([1]; text b180, values of Table 5, 1R,2R versus 1S,2S isomer at P1): 5.80
2 | Ac-DDIVAC [compound 120] | 4.12 | 
3 | Ac-DVIVPC [compound 107] | 4.07 | 
4 | CCC[C@H](NC(=O)[C@@H]1CCCCN1C(=O)[C@@H](NC(=O)[C@@H](NC(=O)[C@H](CC(=O)O)NC(=O)[C@H](CC(=O)O)NC(C)=O)[C@@H](C)CC)C(C)C)C(=O)O [compound 127] (Ac-DDIV[Pip][Nva]-OH; C-terminus assumed) | 3.22 | 
5 | Ac-DDVVPC [compound 109] | 4.10 | 
6 | CC(=O)N[C@@H](CC(=O)O)C(=O)N[C@@H](CC(=O)O)C(=O)N[C@H](C(=O)N[C@H](C(=O)N1CCC[C@H]1C(=O)N[C@@H](CS)C(=O)O)C(C)C)C1CCCCC1 [compound 110] (Ac-DD[Chg]VPC-OH; C-terminus assumed) | 4.62 | 
7 | Ac-DDIVVC [compound 118] | 3.88 | 
8 | Ac-DEIVPC [compound 106] | 4.80 | 
9 | CC[C@@H]1C[C@]1(NC(=O)[C@@H]1C[C@@H](OCc2cccc3ccccc23)CN1C(=O)[C@@H](NC(=O)[C@@H](NC(=O)[C@H](NC(=O)[C@H](CC(=O)O)NC(C)=O)C(C)C)C1CCCCC1)C(C)C)C(=O)O [compound 521] (Ac-D[dV][Chg]V[Hyp](CH2(1-naphthyl))[Acca(2-Et,1R,2R)]-OH) |  | pIC50 (human leukocyte elastase): < 3.52; pIC50 ([1]; Table 5, first line of the cell, NS3 protease/NS4A cofactor peptide radiometric assay (Example 38)): 7.62
10 | CCC[C@H](NC(=O)[C@@H]1C[C@@H](OCc2cccc(C)c2)CN1C(=O)[C@@H](NC(=O)[C@@H](NC(=O)[C@H](CC(=O)O)NC(=O)[C@H](CC(=O)O)NC(C)=O)[C@@H](C)CC)C(C)C)C(=O)O [compound 205] (Ac-DDIV[Hyp](mXylylene)[Nva]-OH; C-terminus assumed) | 5.17 | 
